Experimental data reported in patent US9701691B2, “Thienopyrimidine compounds” (Hoffmann-La Roche Inc., priority 2012, dated 2017).
Structures can show the parent of a compound that is named as a salt.

Each compound was assayed against Recombinant human full length SYK protein (Homo sapiens (Human), UniProt P43405) (assay: SYK kinase assay (33P ATP incorporation into biotinylated peptide)). Details: ATP 20 μM.
Type: biochemical
Procedure: This assay is performed in 96-well format for IC50 determination with 8 samples which represented 10 half log dilutions and a 40 μL reaction volume. […] Phosphorylated products were detected upon termination of reactions with EDTA and the addition of Streptavidin coated beads.
Assay plates: 96-well MultiScreen 0.65 um filter plates (Millipore Cat. No.: MADVNOB10)
final concentration: 50 mM HEPES pH7.5
BSA: Bovine Serum Albumin Fraction V, fatty acid free (Roche Diagnostics GmbH, Cat. No. 9100221) diluted to a final concentration of 0.1%
Assay Dilution Buffer (ADB): 50 mM HEPES, 0.1 mM EGTA, 0.1 mM Na Vanadate, 0.1 mM β-glycerophosphate, 10 mM MgCl2, 1 mM DTT, 0.1% BSA, pH 7.5
Bead wash buffer: 10 g/L PBS (Phosphate buffered saline) with 2M NaCl+1% phosphoric acid.
`Cc1cc(NC(=O)c2csc3cnc(N[C@@H]4CCCC[C@@H]4N)nc23)cc2cccnc12` [Compound 2, 2-((1R,2S)-2-Amino-cyclohexylamino)-thieno[3,2-d]pyrimidine-7-carboxylic acid (8-methyl-quinolin-6-yl)-amide] gave an IC50 of under 0.001 µM.

The compounds below were run on B-cell lymphocytes (CD20+) in human whole blood, CD69 up-regulation (assay: B Cell CD69 Up-Regulation Assay in Human Whole Blood). Details: goat anti-human IgM 50 μg/ml stimulation for 20 hrs, CD69hi CD20+ B cells, read-out: HWB, IC50.
Type: cell-based
Procedure: B Cell CD69 Up-Regulation Assay in Human Whole Blood
Human Blood was collected from healthy volunteers into Vacutainers (BD Biosciences, San Jose, Calif.) containing sodium heparin. Test compound was suspended in DMSO and nine half-log serial dilutions were made. The concentration of DMSO in the assay was 0.5%. […] whole blood was pre-incubated with compound for 30 min and then stimulated with goat anti-human IgM (50 μg/ml, Southern Biotech) for 20 hrs. At the end of the 20 hour incubation, samples were incubated with fluorochrome-conjugated antibodies, PE mouse anti-human CD20 and APC Mouse anti-human CD69 (BD Biosciences), for 30 minutes. Samples were then lysed with Lyse solution (BD) and washed with PBS containing 2% fetal bovine serum (FBS). Fluorescent signals were acquired on flow cytometer LSR II (BD) and data were analyzed by Flow Jo. The percentage of activated (CD69hi) B-cell lymphocytes (CD20+) were determined using un-stimulated (negative control) and stimulated (positive control) wells as reference guidelines. The percentage inhibition was calculated and an IC50 curve was constructed using Xfit in Microsoft Excel with sigmoidal curve fitting.
`CCc1cccc(NC(=O)c2csc3cnc(N[C@@H]4CCOC[C@@H]4N)nc23)n1` [Compound 1, 2-((3R,4R)-3-Amino-tetrahydro-pyran-4-ylamino)-thieno[3,2-d]pyrimidine-7-carboxylic acid (6-ethyl-pyridin-2-yl)-amide] showed an IC50 of 5.38 µM.
In the case of `Cc1cc(NC(=O)c2csc3cnc(N[C@@H]4CCCC[C@@H]4N)nc23)cc2cccnc12` [Compound 2, 2-((1R,2S)-2-Amino-cyclohexylamino)-thieno[3,2-d]pyrimidine-7-carboxylic acid (8-methyl-quinolin-6-yl)-amide], the IC50 is reported as 0.19 µM.
`CCc1cc(NC(=O)c2csc3cnc(N[C@@H]4CCCC[C@@H]4N)nc23)cc2cccnc12` [Compound 3, 2-((1R,2S)-2-Amino-cyclohexylamino)-thieno[3,2-d]pyrimidine-7-carboxylic acid (8-ethyl-quinolin-6-yl)-amide] was tested, and the IC50 was 0.76 µM.
Work on `Cc1nc(NC(=O)c2csc3cnc(N[C@@H]4CCCC[C@@H]4N)nc23)ccc1C#N` [Compound 4, 2-((1R,2S)-2-Amino-cyclohexylamino)-thieno[3,2-d]pyrimidine-7-carboxylic acid (5-cyano-6-methyl-pyridin-2-yl)-amide] yielded an IC50 of 50 µM.
`N[C@H]1COCC[C@H]1Nc1ncc2scc(C(=O)Nc3cccc(-n4nccn4)n3)c2n1` [Compound 5, 2-((3R,4R)-3-Amino-tetrahydro-pyran-4-ylamino)-thieno[3,2-d]pyrimidine-7-carboxylic acid (6-[1,2,3]triazol-2-yl-pyridin-2-yl)-amide] was tested, and the IC50 was 3.79 µM.
In the case of `N[C@H]1COCC[C@H]1Nc1ncc2scc(C(=O)Nc3cccc(-n4ccnn4)n3)c2n1` [Compound 6, 2-((3R,4R)-3-Amino-tetrahydro-pyran-4-ylamino)-thieno[3,2-d]pyrimidine-7-carboxylic acid (6-[1,2,3]triazol-1-yl-pyridin-2-yl)-amide], the IC50 is reported as 4.29 µM.
Compound `N[C@H]1CCCC[C@H]1Nc1ncc2scc(C(=O)Nc3ccc4cnccc4n3)c2n1` [Compound 7, 2-((1R,2S)-2-Amino-cyclohexylamino)-thieno[3,2-d]pyrimidine-7-carboxylic acid [1,6]naphthyridin-2-ylamide] has an IC50 of 0.55 µM.
`N[C@H]1CCCC[C@H]1Nc1ncc2scc(C(=O)Nc3nc4ccccc4s3)c2n1` [Compound 8, 2-((1R,2S)-2-Amino-cyclohexylamino)-thieno[3,2-d]pyrimidine-7-carboxylic acid benzothiazol-2-ylamide] gave an IC50 of 50 µM.
Compound `N[C@H]1CCCC[C@H]1Nc1ncc2scc(C(=O)Nc3nc4ccccc4[nH]3)c2n1` [Compound 9, 2-((1R,2S)-2-Amino-cyclohexylamino)-thieno[3,2-d]pyrimidine-7-carboxylic acid (1H-benzoimidazol-2-yl)-amide] has an IC50 of 50 µM.
In the case of `N[C@H]1CCCC[C@H]1Nc1ncc2scc(C(=O)Nc3ccc4ncccc4n3)c2n1` [Compound 10, 2-((1R,2S)-2-Amino-cyclohexylamino)-thieno[3,2-d]pyrimidine-7-carboxylic acid [1,5]naphthyridin-2-ylamide], the IC50 is reported as 3.74 µM.
`Cn1cnc2c(NC(=O)c3csc4cnc(N[C@@H]5CCOC[C@@H]5N)nc34)cccc21` [Compound 11, 2-((3R,4R)-3-Amino-tetrahydro-pyran-4-ylamino)-thieno[3,2-d]pyrimidine-7-carboxylic acid (1-methyl-1H-benzoimidazol-4-yl)-amide hydrochloride] was tested, and the IC50 was 1.44 µM.
Compound `Cn1cnc2c(NC(=O)c3csc4cnc(NCCN)nc34)cccc21` [Compound 12, 2-(2-Amino-ethylamino)-thieno[3,2-d]pyrimidine-7-carboxylic acid (1-methyl-1H-benzoimidazol-4-yl)-amide trifluoroacetate] has an IC50 of 3.06 µM.
`Cn1nc(NC(=O)c2csc3cnc(N[C@@H]4CCCC[C@@H]4N)nc23)c2ccc(F)cc21` [Compound 15, 2-((1R,2S)-2-Amino-cyclohexylamino)-thieno[3,2-d]pyrimidine-7-carboxylic acid (6-fluoro-1-methyl-1H-indazol-3-yl)-amide trifluoroacetate] was tested, and the IC50 was 50 µM.
In the case of `N[C@H]1COCC[C@H]1Nc1ncc2scc(C(=O)Nc3ccc4ccccc4c3)c2n1` [Compound 16, 2-((3R,4R)-3-Amino-tetrahydro-pyran-4-ylamino)-thieno[3,2-d]pyrimidine-7-carboxylic acid naphthalen-2-ylamide], the IC50 is reported as 3.73 µM.
`Cc1ccc(NC(=O)c2csc3cnc(N[C@@H]4CCOC[C@@H]4N)nc23)cc1` [Compound 18, 2-((3R,4R)-3-Amino-tetrahydro-pyran-4-ylamino)-thieno[3,2-d]pyrimidine-7-carboxylic acid p-tolylamide] showed an IC50 of 12.2 µM.
In the case of `Cn1ccc(NC(=O)c2csc3cnc(N[C@@H]4CCOC[C@@H]4N)nc23)n1` [Compound 19, 2-((3R,4R)-3-Amino-tetrahydro-pyran-4-ylamino)-thieno[3,2-d]pyrimidine-7-carboxylic acid (1-methyl-1H-pyrazol-3-yl)-amide], the IC50 is reported as 10.7 µM.
`Cn1cc(NC(=O)c2csc3cnc(N[C@@H]4CCOC[C@@H]4N)nc23)cn1` [Compound 21, 2-((3R,4R)-3-Amino-tetrahydro-pyran-4-ylamino)-thieno[3,2-d]pyrimidine-7-carboxylic acid (1-methyl-1H-pyrazol-4-yl)-amide] was tested, and the IC50 was 5.8 µM.
`N[C@H]1COCC[C@H]1Nc1ncc2scc(C(=O)Nc3cnn4cccnc34)c2n1` [Compound 22, 2-((3R,4R)-3-Amino-tetrahydro-pyran-4-ylamino)-thieno[3,2-d]pyrimidine-7-carboxylic acid pyrazolo[1,5-a]pyrimidin-3-ylamide] was tested, and the IC50 was 0.92 µM.
Compound `N[C@H]1COCC[C@H]1Nc1ncc2scc(C(=O)Nc3cnc4cccnn34)c2n1` [Compound 23, 2-((3R,4R)-3-Amino-tetrahydro-pyran-4-ylamino)-thieno[3,2-d]pyrimidine-7-carboxylic acid imidazo[1,2-b]pyridazin-3-ylamide] has an IC50 of 1.36 µM.
For `Cc1cc(C)nc(NC(=O)c2csc3cnc(N[C@@H]4CCOC[C@@H]4N)nc23)c1` [Compound 24, 2-((3R,4R)-3-Amino-tetrahydro-pyran-4-ylamino)-thieno[3,2-d]pyrimidine-7-carboxylic acid (4,6-dimethyl-pyridin-2-yl)-amide], the IC50 was 1.53 µM.
For `Cc1ccc(NC(=O)c2csc3cnc(N[C@@H]4CCOC[C@@H]4N)nc23)nc1C` [Compound 25, 2-((3R,4R)-3-Amino-tetrahydro-pyran-4-ylamino)-thieno[3,2-d]pyrimidine-7-carboxylic acid (5,6-dimethyl-pyridin-2-yl)-amide], the IC50 was 1.67 µM.
